Measured values taken from article PMC5701133, “Structural Mechanism of the Oxygenase JMJD6 Recognition by the Extraterminal (ET) Domain of BRD4” (Scientific Reports, 2017).

Experiments:
[1] = system: BRD4 and JMJD6 interaction; assay: Co-immunoprecipitation with added nucleic acid: BRD4/JMJD6 association; type: binding; settings: for association of Flag-BRD4WT with JMJD6 on addition of nucleic acid (in words): double-transfected Flag-BRD4 and His-JMJD6 HEK293T lysate, 1 μM ssRNA, dsDNA or ssDNA; for BRD4/JMJD6 association, endogenous and single-transfected IP, on addition of nucleic acid (in words): endogenous and single-transfected HEK293T IP experiments
Method: Incubate at 4 °C overnight.

JMJD6 = settings: biochemical study; ref [21]; cited from earlier work

Row | Substance | association of Flag-BRD4WT with JMJD6 on addition of nucleic acid (in words) [1] | BRD4/JMJD6 association, endogenous and single-transfected IP, on addition of nucleic acid (in words) [1] | interaction with JMJD6 (in words) (JMJD6)
1 | ssRNA: 5′-AUACGAUGCUUUACGGUGCUAUUUUGU-3′; 27 nt (RNA, backbone not given here) | appears much stronger | no additional effect | can interact
2 | ssDNA: 5′-TTTCTAGATCAGGAGCTGTCGGAAGCTATCC-3′; 31 nt (DNA, backbone not given here) | no improvements on JMJD6 interaction with BRD4 | no additional effect | 
